Series [1] deals with Ad-TSHR-immunized mice. Kind of series: heart weights upon necropsy. Conditions: 1 mg/kg IV 4-weekly, necropsy at end of experiment. The format is in vivo, BALB/c mice. The protocol:
(§1) In FIG. 7 the effect of the peptide therapy on heart rates at various times during the experiment (A), and on heart weights (B) and cardiac ventricular volumes (C) at the end of the experiment were evaluated in all animals. The measurements were carried out in Ad-TSHR-immunized mice treated by either 4-weekly injections with vehicle (0.9% NaCl, “Graves' no therapy”, n=25 mice), or administrations of 1 mg/kg body weight of peptide of the invention 836 (12 mice), or of peptide 829 (13 mice), or TSHR-Fc (18 mice). In addition, age-matched immunologically naïve unimmunized mice (“healthy”, 19 animals) were investigated. Data are represented as mean±SEM. Significance over time was tested by analysis of variance (ANOVA) of groups at given time points, and controlled by ANOVA for repeated measurements within one group, followed by LSD post-hoc testing. *p<0.05, and **p<0.005, compared to the TSHR-immunized group treated with only NaCl (“Graves' no therapy”).
Due to unavailability of some fine histological sections, analysis of this parameter in mice treated with other peptides could unfortunately not be completed.

The subject of series [2] is Ad-TSHR-immunized mice. Kind of series: ECG heart rates in Graves' disease mouse model. Conditions: 1 mg/kg IV 4-weekly, ECG under anaesthesia. It counts as in vivo, BALB/c mice. The protocol: as §1
When mice were subjected to anaesthesia for immunisation, their heart function was monitored with an electrocardiogram (ECG amplifier module, Harvard Apparatus, Hugo Sachs electronics) and recorded with a special software, which allows to determine the heart rate from the ECG reading (Haemodyn, Hugo Sachs electronics). ECG was also performed in anaesthesia before animals were euthanized for histological exam at the end of the study.

The format of series [3] is physicochemical. From the text:
Peptide 836 is a 24-meric cyclic peptide corresponding to the eighth TSHR LRD loop, and peptide 829 (also 24-meric) to the first loop of the TSHR LRD.

Series [4] relates to Ad-TSHR-immunized mice. Kind of series: thyroid size at end of experiment in Graves' disease mouse model. It counts as in vivo, BALB/c mice. Conditions: 1 mg/kg IV 4-weekly. The protocol: Representative images are shown. In FIG. 4B, the effects of peptide therapy on thyroid sizes were investigated at the end of the experiment. The measurements were carried out in Ad-TSHR-immunized mice treated by either 4-weekly injections with vehicle (0.9% NaCl, “Graves' no therapy”, n=25 mice), or administrations of 1 mg/kg body weight of peptide of the invention 836 (12 mice), or of peptide 829 (13 mice), or of TSHR-Fc (18 mice), or of control peptide 835 (13 mice). In addition, age-matched immunologically naïve unimmunized mice (“healthy”, 19 animals) were investigated. The mean thyroid sizes in mm^3 are shown with SEM. Differences between groups were tested by AVOVA followed by post hoc LSD testing. ** indicates statistical significance (p<0.001) compared to the TSHR-immunized group treated with only NaCl (“Graves' no therapy”).
(§2) The study protocol used three 3-weekly immunizations (“initiation”) and followed by a “maintenance” phase with further regular 4-weekly boosts until the 9th immunisation, as described before (22). Mice were randomly assigned to therapeutic groups. Therapy (either 1 mg/kg body weight peptides or 0.9% NaCl vehicle control) was given 1 week after the 4th immunization by IV injection into a tail vein, and then continued at 4-weekly intervals, as described before for the treatment of anti-β1AR (16). The fusion protein TSHR-Fc was given IV at identical times at doses of 1 mg/kg, but had to be applied together with the histamine receptor blocker clemastin (Tavegil®) at a dose of 0.02 mg per mouse (25 g body weight) to avoid clinical symptoms of allergic reaction, which had been observed in initial pilot studies of TSHR-Fc administration in mice.
After euthanasia, dissection of the thyroid glands was performed under a stereomicroscope, as described before (22). Briefly, cross cuts at the level above the larynx and below the seventh cartilage ring were made and the glands with the tracheae and oesophagi were removed from the necks. Tissue blocks were kept in 4% neutral para-formaldehyde (PFA), washed in PBS 3 times and embedded in optimum cutting temperature (OCT) formulation (Tissue-Tek® O.C.T.™ compound, VWR Chemicals, Leuven, Belgium). Consecutive 5 μm-thick cross sections were cut at a fixed distance of 500 μm using a Leica microtome CM 1850 Cryostat (temperature at −19° C.) and mounted on Thermo Polysine slides (Thermo Scientific, Cat J2800AMNZ). […] Thyroid volumes (mm^3) were calculated from the sum of the areas of each section over the whole cutting region. Myocardial volumes (mm^3) were calculated in a similar way as described for thyroid glands from the sum of the areas of each section over whole cutting region (5 to 6 slides, depending on respective size of the hearts). […]

The test system of series [5] is Ad-TSHR-immunized mice. Kind of series: serum thyroxin (T4) levels in Graves' disease mouse model. The format is in vivo, BALB/c mice. Conditions: 1 mg/kg IV 4-weekly, after start of therapy (week 11). The protocol:
In FIG. 5 the effects of peptide therapy on serum thyroxin levels were evaluated. The measurements were carried out in Ad-TSHR-immunized mice treated by either 4-weekly injections with vehicle (0.9% NaCl, “Graves' no therapy”, n=25 mice), or administrations of 1 mg/kg body weight of peptide of the invention 836 (12 mice), or of peptide 829 (13 mice), or TSHR-Fc (18 mice), or of control peptide 835 (13 mice). In addition, age-matched immunologically naïve unimmunized mice (“healthy”, 19 animals) were investigated. Data are represented as means±SEM. Significance over time was tested by analysis of variance (ANOVA) of groups at given time points, and controlled by ANOVA for repeated measurements within one group, followed by LSD post-hoc testing. *p<0.05, and **p<0.005, compared to the TSHR-immunized group treated with only NaCl (“Graves' no therapy”).
as §2
Total thyroxine (T4) was measured by immunoassay kit (#T4044T-100, Calbiotech Inc, Austin, Calif.) in duplicate determination.

NAFQGLCNETLTLKLYNNGFTSVQ [peptide 835]: the heart weights result in the series on Ad-TSHR-immunized mice [1] is “did not show any effects”. The heart rate result in the series with Ad-TSHR-immunized mice [2] is “did not show any effects”. Moreover, the solubility in water result in series [3] was “easily soluble in water”. Besides, the thyroid size result in the series with Ad-TSHR-immunized mice [4] was “did not show any effects”. The “serum thyroxin (T4) levels” value in the series with Ad-TSHR-immunized mice [5] is listed as “did not result in any effects”.

Source of the values: patent US11459375B2, “Cyclic peptides for the treatment of Graves' disease” (advanceCOR GmbH, priority 2017, dated 2022).
